The text below walks through data of ChEMBL document CHEMBL3994639, “Identification of novel ROS inducer by merging the fragments of piperlongumine and dicoumarol” (Bioorg Med Chem Lett, 2017).

≈ marks a conversion by molar mass, not a printed value. Calls of active or inactive are those of the source. The calls are words filed in the database; no cut-off is given here. Where only a bound is given, the exact number is not on record here.

System in the first data set: not listed separately
In words: Permeability of the compound at pH 7.4. The format is physicochemical. The following applies: not told, read-out: permeability.
`COc1cc(/C=C/C(=O)N2CCC=CC2=O)cc(OC)c1OC` [PIPLARTINE]: the Papp stood at 24.6 ×10⁻⁶ cm/s.
Same read-out and setting: the value for `CC(C(=O)O)c1cccc(C(=O)c2ccccc2)c1` (configuration not stated) [KETOPROFEN] was 1.98 ×10⁻⁶ cm/s.
Same read-out and setting: the value for `COc1cc2c(O)c(/C=C/C(=O)N3CCC=CC3=O)c(=O)oc2c(OC)c1OC` was 20.2 ×10⁻⁶ cm/s.
As to `CC(C)NCC(O)COc1cccc2ccccc12` (configuration not stated) [PROPRANOLOL], the Papp stood at 117 ×10⁻⁶ cm/s.

A further data set concerns HCT-116. Put plainly: Cytotoxicity against human HCT116 cells assessed as growth inhibition after 72 hrs by MTT assay. In kind it is functional, cell-based. The note with it: HCT-116, 72 h. (In general: Tetrazolium dyes change colour on reduction, which living cells bring about.)
As to `COc1cc(/C=C/C(=O)N2CCC=CC2=O)cc(OC)c1OC` [PIPLARTINE], the IC50 stood at 9.2 µM.
In the case of `O=C1C=CCCN1C(=O)/C=C/c1c(O)c2ccc(Cl)cc2oc1=O`, the half-maximal inhibitory concentration (IC50) came out at 12 µM.
Still for that read-out and setting: the figure for `COc1ccc2oc(=O)c(/C=C/C(=O)N3CCC=CC3=O)c(O)c2c1` is 10 µM; for `O=C1CCCCN1C(=O)CCc1c(O)c2ccccc2oc1=O` it is over 90 µM.
The same measure, in the same setting: the value for `COc1cc2c(O)c(/C=C/C(=O)N3CCC=CC3=O)c(=O)oc2c(OC)c1OC` was 3.2 µM; that for `Cc1cc2oc(=O)c(/C=C/C(=O)N3CCC=CC3=O)c(O)c2cc1C` was 5.1 µM.
Take `COc1ccc2c(O)c(/C=C/C(=O)N3CCC=CC3=O)c(=O)oc2c1`: the concentration for half-maximal inhibition (IC50) was 18 µM.
`O=C1C=CCCN1C(=O)/C=C/c1c(O)c2ccc(F)cc2oc1=O`: the concentration for half-maximal inhibition (IC50) amounted to 11 µM.
Same read-out and setting: the figure for `O=C1C=CCCN1C(=O)/C=C/c1c(O)c2ccccc2oc1=O` is 15 µM.

For a further data set, the system named is A549. Put plainly: Antitumor activity in human A549 cells xenografted in athymic nude mouse assessed as tumor growth inhibition at 5 mg/kg, ip administered every other day for 21 days. In kind it is functional. The note with it: 504 h, read-out: TGI. On the technique in general: Xenograft models place foreign cells or tissue in a host animal.
Regarding `COc1cc(/C=C/C(=O)N2CCC=CC2=O)cc(OC)c1OC` [PIPLARTINE], the inhibition in vivo at 5 mg/kg worked out at 41.2%.
Still for that read-out and setting: the figure for `COc1cc2c(O)c(/C=C/C(=O)N3CCC=CC3=O)c(=O)oc2c(OC)c1OC` is 48.5%.

In a further data set the test system is A549. In words: Induction of apoptosis in human A549 cells assessed as nuclei condensation after 24 hrs by DAPI staining based immunofluorescence microscopic analysis. The format is functional, cell-based.
Settings: not given
Turning to `COc1cc2c(O)c(/C=C/C(=O)N3CCC=CC3=O)c(=O)oc2c(OC)c1OC`, the result was Active.

In another data set the test system is A549. In words: Cytotoxicity against human A549 cells assessed as growth inhibition after 72 hrs by MTT assay. In kind it is functional, cell-based. The note with it: A549, 72 h.
On to `COc1cc(/C=C/C(=O)N2CCC=CC2=O)cc(OC)c1OC` [PIPLARTINE], for which the IC50 is 10 µM.
Regarding `O=C1C=CCCN1C(=O)/C=C/c1c(O)c2ccc(Cl)cc2oc1=O`, the half-maximal inhibitory concentration (IC50) turned out to be 6.5 µM.
The same measure, in the same setting: the figure for `COc1ccc2oc(=O)c(/C=C/C(=O)N3CCC=CC3=O)c(O)c2c1` is 9.8 µM; for `O=C1CCCCN1C(=O)CCc1c(O)c2ccccc2oc1=O` it is over 90 µM; for `COc1cc2c(O)c(/C=C/C(=O)N3CCC=CC3=O)c(=O)oc2c(OC)c1OC` it is 4.2 µM.
Take `Cc1cc2oc(=O)c(/C=C/C(=O)N3CCC=CC3=O)c(O)c2cc1C`: the IC50 stood at 15 µM.
Still for that read-out and setting: the figure for `COc1ccc2c(O)c(/C=C/C(=O)N3CCC=CC3=O)c(=O)oc2c1` is 11 µM.
As for `O=C1C=CCCN1C(=O)/C=C/c1c(O)c2ccc(F)cc2oc1=O`, the concentration for half-maximal inhibition (IC50) is 18 µM.
`O=C1C=CCCN1C(=O)/C=C/c1c(O)c2ccccc2oc1=O`: the 50% inhibitory concentration (IC50) came to 12 µM.

A further data set relates to Mus musculus. In words: Toxicity in human A549 cells xenografted athymic nude mouse assessed as body weight loss at 5 mg/kg, ip administered every other day for 21 days. In kind it is organism-based. The following applies: in vivo, 504 h.
As for `COc1cc2c(O)c(/C=C/C(=O)N3CCC=CC3=O)c(=O)oc2c(OC)c1OC`, the Activity entry is recorded as “Non-Toxic”.

System in a further data set: not listed separately
Put plainly: Lipophilicity, log D of compound at pH 7.4. The format is physicochemical. The note with it: buffer.
In turn, `COc1cc(/C=C/C(=O)N2CCC=CC2=O)cc(OC)c1OC` [PIPLARTINE] had a logD of 2.84.

In another data set the test system is HepG2. Put plainly: Cytotoxicity against human HepG2 cells assessed as growth inhibition after 72 hrs by MTT assay. In kind it is functional, cell-based. The following applies: HepG2, 72 h.
Turning to `COc1cc(/C=C/C(=O)N2CCC=CC2=O)cc(OC)c1OC` [PIPLARTINE], the concentration for half-maximal inhibition (IC50) was determined as 8.9 µM.
For `O=C1C=CCCN1C(=O)/C=C/c1c(O)c2ccc(Cl)cc2oc1=O`, the IC50 came to 15 µM.
In the case of `COc1ccc2oc(=O)c(/C=C/C(=O)N3CCC=CC3=O)c(O)c2c1`, the half-maximal inhibitory concentration (IC50) is 7.1 µM.
Consider `O=C1CCCCN1C(=O)CCc1c(O)c2ccccc2oc1=O`, for which the IC50 is over 90 µM.
The same measure, in the same setting: the value for `COc1cc2c(O)c(/C=C/C(=O)N3CCC=CC3=O)c(=O)oc2c(OC)c1OC` was 5.7 µM; that for `Cc1cc2oc(=O)c(/C=C/C(=O)N3CCC=CC3=O)c(O)c2cc1C` was 7.8 µM; that for `COc1ccc2c(O)c(/C=C/C(=O)N3CCC=CC3=O)c(=O)oc2c1` was 12 µM.
On the same count and under the same terms, the value for `O=C1C=CCCN1C(=O)/C=C/c1c(O)c2ccc(F)cc2oc1=O` was 9.7 µM; that for `O=C1C=CCCN1C(=O)/C=C/c1c(O)c2ccccc2oc1=O` was 6.7 µM.

System in another data set: not listed separately
Put plainly: Intrinsic solubility of the compound. The note with it: read-out: Intrinsic_solubility. In kind it is physicochemical.
Take `COc1cc(/C=C/C(=O)N2CCC=CC2=O)cc(OC)c1OC` [PIPLARTINE]: the solubility was determined as 0.75 µg/mL (≈ 2.36 µM).
On the same count and under the same terms, the value for `COc1cc2c(O)c(/C=C/C(=O)N3CCC=CC3=O)c(=O)oc2c(OC)c1OC` was 316 µg/mL (≈ 787 µM).

The next data set has as its system MRC5. Put plainly: Cytotoxicity against human MRC5 cells after 72 hrs by MTT assay. In kind it is cell-based. The following applies: MRC5, 72 h.
Turning to `COc1cc(/C=C/C(=O)N2CCC=CC2=O)cc(OC)c1OC` [PIPLARTINE], the IC50 is 37 µM.
Still for that read-out and setting: the figure for `O=C1C=CCCN1C(=O)/C=C/c1c(O)c2ccc(Cl)cc2oc1=O` is 19 µM.
Regarding `COc1ccc2oc(=O)c(/C=C/C(=O)N3CCC=CC3=O)c(O)c2c1`, the midpoint of inhibition, the IC50, lay at 53 µM.
The same measure, in the same setting: the value for `O=C1CCCCN1C(=O)CCc1c(O)c2ccccc2oc1=O` was 58 µM.
Compound `COc1cc2c(O)c(/C=C/C(=O)N3CCC=CC3=O)c(=O)oc2c(OC)c1OC` yielded a 50% inhibitory concentration (IC50) of 57 µM.
The compound `Cc1cc2oc(=O)c(/C=C/C(=O)N3CCC=CC3=O)c(O)c2cc1C` came in with an IC50 of 35 µM.
For `COc1ccc2c(O)c(/C=C/C(=O)N3CCC=CC3=O)c(=O)oc2c1`, the IC50 is 31 µM.
Still for that read-out and setting: the value for `O=C1C=CCCN1C(=O)/C=C/c1c(O)c2ccc(F)cc2oc1=O` was 8.9 µM; that for `O=C1C=CCCN1C(=O)/C=C/c1c(O)c2ccccc2oc1=O` was 22 µM.

By IC50 is commonly meant the point on the concentration scale where inhibition reaches its midpoint. The term logD denotes lipophilicity at a set pH, counting ionised and neutral species.
